Our source for the Ki and IC50 values is publication PMC2233901 (The Journal of General Physiology, 2004).

Holding throughout (type): cell-based
Assay [1] deals with T1, mBest2 (mouse bestrophin-2) (Mus musculus, UniProt Q8BGM5, F80R).
T1 sequence (Q8BGM5 1-508 F80R): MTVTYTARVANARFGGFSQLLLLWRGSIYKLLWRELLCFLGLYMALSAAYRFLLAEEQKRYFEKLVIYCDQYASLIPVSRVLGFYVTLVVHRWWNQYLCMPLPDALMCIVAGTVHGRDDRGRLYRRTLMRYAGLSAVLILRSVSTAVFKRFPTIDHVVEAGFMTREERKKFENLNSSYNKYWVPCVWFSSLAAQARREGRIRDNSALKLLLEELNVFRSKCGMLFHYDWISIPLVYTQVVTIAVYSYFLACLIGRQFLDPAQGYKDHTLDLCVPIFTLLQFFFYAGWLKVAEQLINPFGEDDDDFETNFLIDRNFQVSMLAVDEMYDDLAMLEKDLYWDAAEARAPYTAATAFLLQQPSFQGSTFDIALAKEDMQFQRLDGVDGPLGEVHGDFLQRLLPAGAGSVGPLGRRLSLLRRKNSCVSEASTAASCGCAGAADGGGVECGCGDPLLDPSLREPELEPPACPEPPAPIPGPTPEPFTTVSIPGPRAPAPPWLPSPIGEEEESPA
The experiment in a line: whole-cell patch clamp, inhibition of Cl current in HEK293. (In patch-clamp work, channel activity is measured electrically.)

Assay [2] addresses T2, mBest2 (mouse bestrophin-2) (Mus musculus, UniProt Q8BGM5, S79T).
T2 sequence (Q8BGM5 1-508 S79T): T1 sequence (Q8BGM5 1-508 F80R) with S79T, R80F
The experiment in a line: whole-cell patch clamp, block of Cl current in HEK293.

Assay [3] addresses T3, mBest2 (mouse bestrophin-2) (Mus musculus, UniProt Q8BGM5).
T3 sequence (Q8BGM5 1-508): T1 sequence (Q8BGM5 1-508 F80R) with R80F
Described as above.

Structures are written as SMILES. Changes are numbered by the printed parent chain.

As to `O=S(=O)(O)c1cc(N=C=S)ccc1/C=C/c1ccc(N=C=S)cc1S(=O)(=O)O` [DIDS], the inhibitory constant (Ki) (as a rule, the equilibrium dissociation constant of an inhibitor or competing ligand from its target) in assay [1] is 0.016 mM.

For `N#CS` [SCN], the IC50 (as a rule, the concentration needed to halve the response being measured) came out at 18.5 ± 2.7 mM in assay [2] and 9.8 ± 1.1 mM in assay [3].
